US7482379B2, “Propenoyl hydrazides” (priority 2004, dated 2009)
Read-outs that look alike come from different tables or passages of the source. Peptide text beside a SMILES is read from it. * marks the point of attachment. AFC = O=c1cc(C(F)(F)F)c2ccc(N*)cc2o1; Cbz = O=C(OCc1ccccc1)*

Legend:
Caspase-8 = Caspase-8 (Homo sapiens, UniProt Q14790); assay: Caspase-8 progress curve inhibition assay; conditions: for k2 Caspase-8: second-order rate constant, Ac-DEVD-AMC substrate, Pipes buffer pH 7.2
Caspase-7 = biological target: T1, Caspase-7 (Homo sapiens, UniProt P55210); assay: Caspase-7 progress curve inhibition assay; conditions: for k2 Caspase-7: second-order rate constant, Ac-DEVD-AMC substrate, Pipes buffer pH 7.2
T1 sequence (P55210 24-198 limits assumed): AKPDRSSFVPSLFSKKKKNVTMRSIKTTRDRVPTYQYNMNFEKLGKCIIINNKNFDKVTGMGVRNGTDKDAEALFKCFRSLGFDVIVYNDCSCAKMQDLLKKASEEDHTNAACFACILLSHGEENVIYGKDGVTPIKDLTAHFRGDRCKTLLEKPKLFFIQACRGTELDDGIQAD
T1 sequence (P55210 207-303 limits assumed): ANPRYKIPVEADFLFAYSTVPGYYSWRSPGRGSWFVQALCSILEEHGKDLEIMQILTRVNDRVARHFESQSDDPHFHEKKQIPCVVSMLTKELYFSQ

Caspase-2 = biological target: T2, Caspase-2 (Homo sapiens, UniProt P42575); assay: Caspase-2 progress curve inhibition assay; conditions: for k2 Caspase-2: second-order rate constant, Cbz-VDVAD-AFC substrate, Pipes buffer pH 7.2
T2 sequence (P42575 170-333 limits assumed): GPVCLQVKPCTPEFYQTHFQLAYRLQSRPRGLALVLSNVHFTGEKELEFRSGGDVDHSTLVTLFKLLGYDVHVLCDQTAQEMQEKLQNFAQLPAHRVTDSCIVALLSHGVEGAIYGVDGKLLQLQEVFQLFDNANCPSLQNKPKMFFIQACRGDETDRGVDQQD
T2 sequence (P42575 348-452 limits assumed): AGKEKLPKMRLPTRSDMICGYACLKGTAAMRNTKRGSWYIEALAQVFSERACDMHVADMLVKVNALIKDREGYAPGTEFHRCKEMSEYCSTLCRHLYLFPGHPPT
Description: Inhibition rates were determined by the progress curve method known in the art. This method is suitable for measuring irreversible inhibition rates with fast inhibitors, where the inhibitor, the substrate and the enzyme are incubated together and the rate of substrate hydrolysis is measured continuously. The rate of substrate hydrolysis in the presence of the inhibitor was monitored for 20 minutes. The progress curve of inhibition, where the product formation approaches an asymptote is described in the equation ln([P∞]−[P])=ln[P∞]−A[I]t where [P] and [P∞] are the product concentrations at t and t=∞ respectively, A is the apparent rate constant in the presence of the substrate. The apparent rate constants were determined from the slopes of plots of ln ([P∞]−[P]) versus time (t) in seconds as previously described, where A=slope/[I].
(§1) For competitive and irreversible inhibition, the apparent rate constant is converted to the second order rate constant k2 by taking into consideration the effect of the substrate concentration on the apparent rate constant. The second order rate constant is described as in the equation: k2=A*(1+[S]/KM)
(§2) The concentration of the caspase-3 stock solution was 2 nM in the assay buffer. Assay buffer is a 1:1 mixture of caspase buffer (40 mM Pipes, 200 mM NaCl, 0.2% (w/v) CHAPS, sucrose 20% (w/v)) and 20 mM DTT solution in H2O at pH 7.2. The concentration of the substrate stock solution was 2 mM in DMSO. The enzyme was pre-activated for 10 min at 37° C. in the assay buffer. […] 50 μL of 2 nM enzyme stock solution (final concentration: 1 nM) was added to the mixture after 1 min and reading started immediately for 20 min at 37° C. Inhibition experiments were repeated in duplicate and standard deviations determined.
The inhibitor stock solution concentrations varied from 5×10^−3 M to 1×10^−4 M in DMSO.

Caspase-6 = biological target: T3, Caspase-6 (Homo sapiens, UniProt P55212); assay: Caspase-6 progress curve inhibition assay; conditions: for k2 Caspase-6: second-order rate constant, Ac-DEVD-AMC substrate, Pipes buffer pH 7.2
T3 sequence (P55212 24-179 limits assumed): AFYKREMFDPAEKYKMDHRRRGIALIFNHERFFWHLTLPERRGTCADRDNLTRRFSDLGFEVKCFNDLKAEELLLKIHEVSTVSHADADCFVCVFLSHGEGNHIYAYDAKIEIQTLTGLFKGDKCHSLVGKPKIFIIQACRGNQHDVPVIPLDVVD
T3 sequence (P55212 194-293 limits assumed): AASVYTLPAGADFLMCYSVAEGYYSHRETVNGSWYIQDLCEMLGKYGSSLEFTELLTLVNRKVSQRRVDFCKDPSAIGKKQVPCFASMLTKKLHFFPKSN

Caspase-3 = biological target: T4, Caspase-3 (Homo sapiens, UniProt P42574); assay: Caspase-3 progress curve inhibition assay; conditions: for k2 Caspase-3: second-order rate constant, Ac-DEVD-AMC substrate, Pipes buffer pH 7.2
T4 sequence (P42574 29-175 limits assumed): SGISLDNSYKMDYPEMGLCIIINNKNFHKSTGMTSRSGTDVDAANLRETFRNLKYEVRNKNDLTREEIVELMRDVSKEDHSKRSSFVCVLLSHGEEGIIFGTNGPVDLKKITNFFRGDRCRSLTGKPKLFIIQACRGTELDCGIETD
T4 sequence (P42574 176-277 limits assumed): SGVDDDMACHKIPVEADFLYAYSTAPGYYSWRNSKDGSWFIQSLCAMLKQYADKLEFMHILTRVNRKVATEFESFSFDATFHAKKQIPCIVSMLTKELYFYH
Description: Caspase-2, -3, -6, -7, -8, -9 and -10. […] Inhibition rates were determined by the progress curve method known in the art. This method is suitable for measuring irreversible inhibition rates with fast inhibitors, where the inhibitor, the substrate and the enzyme are incubated together and the rate of substrate hydrolysis is measured continuously. The rate of substrate hydrolysis in the presence of the inhibitor was monitored for 20 minutes. The progress curve of inhibition, where the product formation approaches an asymptote is described in the equation ln([P∞]−[P])=ln[P∞]−A[I]t where [P] and [P∞] are the product concentrations at t and t=∞ respectively, A is the apparent rate constant in the presence of the substrate. The apparent rate constants were determined from the slopes of plots of ln ([P∞]−[P]) versus time (t) in seconds as previously described, where A=slope/[I].
as §1, §2

Caspase-10 = biological target: T5, Caspase-10 (Homo sapiens, UniProt Q92851); assay: Caspase-10 progress curve inhibition assay; conditions: for k2 Caspase-10: second-order rate constant, Ac-DEVD-AMC substrate, Hepes/PEG buffer pH 7.0
T5 sequence (Q92851 220-415 limits assumed): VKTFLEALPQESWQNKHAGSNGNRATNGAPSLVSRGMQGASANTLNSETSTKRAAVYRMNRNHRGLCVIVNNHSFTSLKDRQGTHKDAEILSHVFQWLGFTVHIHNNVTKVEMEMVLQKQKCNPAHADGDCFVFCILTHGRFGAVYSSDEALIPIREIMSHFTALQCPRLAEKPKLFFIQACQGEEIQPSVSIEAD
T5 sequence (Q92851 416-521 limits assumed): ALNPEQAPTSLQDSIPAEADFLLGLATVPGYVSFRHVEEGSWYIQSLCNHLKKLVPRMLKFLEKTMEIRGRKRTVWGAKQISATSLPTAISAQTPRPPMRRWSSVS
Description: Caspase-2, -3, -6, -7, -8, -9 and -10. Caspases-2, -3, -6, -7, -8, -9 and -10 were expressed in E. coli and purified in Guy Salvesen's laboratory at the Burnham Institute, La Jolla, Calif., according to the methods known in the art. Inhibition rates were determined by the progress curve method known in the art. This method is suitable for measuring irreversible inhibition rates with fast inhibitors, where the inhibitor, the substrate and the enzyme are incubated together and the rate of substrate hydrolysis is measured continuously. The rate of substrate hydrolysis in the presence of the inhibitor was monitored for 20 minutes. The progress curve of inhibition, where the product formation approaches an asymptote is described in the equation ln([P∞]−[P])=ln[P∞]−A[I]t where [P] and [P∞] are the product concentrations at t and t=∞ respectively, A is the apparent rate constant in the presence of the substrate. The apparent rate constants were determined from the slopes of plots of ln ([P∞]−[P]) versus time (t) in seconds as previously described, where A=slope/[I].
as §1
Assay buffer is a 1:1 mixture of buffer (200 mM Hepes, 0.2% (w/v) CHAPS, PEG 20% (w/v)) and 20 mM DTT solution in H2O at pH 7.0). The enzyme was pre-activated for 10 min at 25° C. in the assay buffer.

S. mansoni legumain = S. mansoni legumain (Schistosoma mansoni, UniProt P09841, N192C); assay: S. mansoni legumain (SmAE) inhibition assay; assay type: biochemical
Description: Studies with the propenoyl hydrazides using the schistosome legumain […], (Schistosoma mansoni asparaginyl endopeptidase) were also performed. […] The actual active site enzyme concentration is unknown. The lyophilized enzyme ([…]) was reconstituted in 1.5 mL 0.5 M sodium acetate, pH 4.5 containing 4 mM DTT, and left to stand at 37° C. for 3-4 hours to allow for auto-activation of the zymogen. In a black 96-well microtiter plate, 50 μL of activated enzyme was added to an equal volume of 0.1 M citrate-phosphate buffer pH 6.8 containing 4 mM DTT. Inhibitor stock solutions (20 mM) were prepared in DMSO. Serial dilutions (using water) of inhibitor were added (as 1 μL aliquots) to yield concentrations of between 2 and 0.00002 μM inhibitor. […] After incubating various inhibitor concentrations with enzyme, 100 μL of the same buffer containing 20 μM substrate (Cbz-Ala-Ala-Asn-AMC) was added to the wells and the reaction monitored at room temperature with linear kinetics up to 20 minutes. Inhibitors are tested in duplicate. A plot of the RFU/min versus the inhibitor concentration [μM] permitted calculation of an IC50 value and estimation of the kobs/[I].

[1] = S. mansoni legumain, 20 min preincubation, Cbz-Ala-Ala-Asn-AMC substrate

Sequence of S. mansoni legumain (P09841 32-291 N192C): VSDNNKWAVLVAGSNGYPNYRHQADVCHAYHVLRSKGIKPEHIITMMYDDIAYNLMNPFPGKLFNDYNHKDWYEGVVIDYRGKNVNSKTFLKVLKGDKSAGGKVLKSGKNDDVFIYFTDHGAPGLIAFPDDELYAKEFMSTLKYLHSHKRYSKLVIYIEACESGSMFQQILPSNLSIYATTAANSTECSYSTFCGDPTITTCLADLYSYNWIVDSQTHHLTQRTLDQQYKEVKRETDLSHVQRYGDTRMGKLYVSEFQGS
Sequence of Caspase-8 (Q14790 217-374 limits assumed): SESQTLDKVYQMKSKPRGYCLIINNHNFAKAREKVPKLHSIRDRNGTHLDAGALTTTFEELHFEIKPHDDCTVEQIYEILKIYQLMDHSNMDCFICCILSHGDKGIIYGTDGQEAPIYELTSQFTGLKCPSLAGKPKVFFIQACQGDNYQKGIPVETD
Sequence of Caspase-8 (Q14790 385-479 limits assumed): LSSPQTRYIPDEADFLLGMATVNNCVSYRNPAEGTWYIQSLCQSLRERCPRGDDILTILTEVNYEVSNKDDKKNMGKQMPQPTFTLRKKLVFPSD

Compound | k2 Caspase-8 (Caspase-8) | k2 Caspase-7 (Caspase-7) | k2 Caspase-2 (Caspase-2) | k2 Caspase-6 (Caspase-6) | k2 Caspase-3 (Caspase-3) | k2 Caspase-10 (Caspase-10) | other results
CC[C@H](C)[C@H](NC(=O)OCc1ccccc1)C(=O)N[C@@H](CCC(=O)O)C(=O)N[C@H](C(=O)NN(CC(=O)O)C(=O)/C=C/C(=O)OCc1ccccc1)[C@@H](C)O (relative stereo) [Cbz-Ile-Glu-Thr-AAsp-CH═CH—COOCH2Ph, N^1-trans-(3-Benzyloxycarbonylpropenoyl)-N^2—(N-benzyloxycarbonylisoleucylglutamylthreonyl)-N^1-carboxylmethylhydrazine] | 148,400 M^−1s^−1 | 660 M⁻¹ s⁻¹ | 110 M⁻¹ s⁻¹ | 23,350 M^−1s^−1 | 2,300 M^−1s^−1 | 15,200 M^−1s^−1 | 
CCOC(=O)/C=C/C(=O)N(CC(=O)O)NC(=O)[C@@H](NC(=O)[C@H](CCC(=O)O)NC(=O)[C@@H](NC(=O)OCc1ccccc1)[C@@H](C)CC)[C@@H](C)O (relative stereo) [Cbz-Ile-Glu-Thr-AAsp-CH═CH—COOEt, N^2—(N-Benzyloxycarbonylisoleucylglutamylthreonyl)-N^1-carboxymethyl-N^1-trans-(3-ethoxycarbonylpropenoyl)hydrazine] | 56,500 M^−1s^−1 | 530 M⁻¹ s⁻¹ | 300 M⁻¹ s⁻¹ | 88,700 M^−1s^−1 | 6,740 M^−1s^−1 | 6,900 M^−1s^−1 | 
CCOC(=O)/C=C\C(=O)N(CC(=O)O)NC(=O)[C@@H](NC(=O)[C@H](CCC(=O)O)NC(=O)[C@H](CC(=O)O)NC(=O)OCc1ccccc1)C(C)C (relative stereo) [Cbz-Asp-Glu-Val-AAsp-CH═CH—COOEt (cis), N^2—(N-Benzyloxycarbonylaspartylglutamylvalyl)-N^1-carboxylmethyl-N^1-cis-(3-ethoxycarbonylpropenoyl)hydrazine] | 181,000 M^−1s^−1 | 139,000 M^−1s^−1 | 26,200 ± ^ M^−1s^−1 | 11,000 M^−1s^−1 | 1,060,000 M^−1s^−1 | 13,500 M^−1s^−1 | 
CC(C)[C@H](NC(=O)[C@H](CCC(=O)O)NC(=O)[C@H](CC(=O)O)NC(=O)OCc1ccccc1)C(=O)NN(CC(=O)O)C(=O)/C=C/C(=O)OCc1ccccc1 (relative stereo) [Cbz-Asp-Glu-Val-AAsp-CH═CH—COOCH2Ph, N^1-trans-(3-Benzyloxycarbonylpropenoyl)-N^2—(N-benzyloxycarbonylaspartylglutamylvalyl)-N^1-carboxymethylhydrazine] | 121,000 M^−1s^−1 | 114,000 M^−1s^−1 |  | 8,470 M^−1s^−1 | 1,700,000 M^−1s^−1 | 28,300 M^−1s^−1 | 
CC(C)[C@H](NC(=O)[C@H](CCC(=O)O)NC(=O)[C@H](CC(=O)O)NC(=O)OCc1ccccc1)C(=O)NN(CC(=O)O)C(=O)/C=C/C(=O)c1ccccc1 (relative stereo) [Cbz-Asp-Glu-Val-AAsp-CH═CH—COPh, N^2—(N-Benzyloxycarbonylaspartylglutamylvalyl)-N^1-trans-(3-benzoylpropenoyl)-N^1-carboxymethylhydrazine] | 9,720 M^−1s^−1 | 10,800 M^−1s^−1 | 165 M⁻¹ s⁻¹ | 1,800 M^−1s^−1 | 122,000 M^−1s^−1 | 930 M⁻¹ s⁻¹ | 
C[C@H](NC(=O)OCc1ccccc1)C(=O)N[C@@H](C)C(=O)NN(CC(N)=O)C(=O)/C=C/C(=O)N(Cc1ccccc1)Cc1ccc2ccccc2c1 |  |  |  |  |  |  | IC50 (S. mansoni legumain): 70 nM; kinact/KI (S. mansoni legumain; read-out: kobs/[I]): 6100 M⁻¹ s⁻¹
CCN(CC)C(=O)/C=C/C(=O)N(CC(N)=O)NC(=O)[C@H](C)NC(=O)[C@H](C)NC(=O)OCc1ccccc1 [Cbz-Ala-Ala-AAsn-CH═CH—CONEt2, N^2—(N-Benzyloxycarbonylalanylalanyl)-N^1-carbamoylmethyl-N^1-trans-(3-diethylcarbamoylpropenoyl)hydrazine] |  |  |  |  |  |  | IC50 (S. mansoni legumain; [1]): > 2000 nM
CCOC(=O)C=CC(=O)N(CC(N)=O)NC(=O)C(C)NC(=O)C(C)NC(=O)CCCCC1SCC2NC(=O)NC21 (stereo not drawn) [Biotinyl-Ala-Ala-AAsn-CH═CH—COOEt] |  |  |  |  |  |  | IC50 (S. mansoni legumain): 10 nM
CC(NC(=O)C(NC(=O)C(CC(=O)O)NC(=O)C(NC(=O)OCc1ccccc1)C(C)C)C(C)C)C(=O)NC(CC(=O)O)C(=O)Nc1ccc2c(C(F)(F)F)cc(=O)oc2c1 (stereo not drawn) [Z-VDVAD-AFC, reference compound] (Cbz-VDVAD-{AFC}; configuration not given here) |  |  |  |  |  |  | Km (Caspase-2; read-out: KM with caspase-2, substrate Z-VDVAD-AFC): 80.5 µM
CC(=O)N[C@@H](CC(=O)O)C(=O)N[C@@H](CCC(=O)O)C(=O)N[C@H](C(=O)N[C@@H](CC(=O)O)C(=O)Nc1ccc2c(C)cc(=O)oc2c1)C(C)C [Ac-DEVD-AMC, reference compound] |  |  |  |  |  |  | Km (Caspase-8; read-out: KM with caspase-8, substrate Ac-DEVD-AMC): 6.79 µM; Km (Caspase-7; read-out: KM with caspase-7, substrate Ac-DEVD-AMC): 23 µM; Km (Caspase-6; read-out: KM with caspase-6, substrate Ac-DEVD-AMC): 236 µM; Km (Caspase-3; read-out: KM with caspase-3, substrate Ac-DEVD-AMC): 9.7 µM; Km (Caspase-10; read-out: KM with caspase-10, substrate Ac-DEVD-AMC): 20.2 µM
CC=CC=CC(=O)N(CC(N)=O)NC(=O)C(C)NC(=O)C(C)NC(=O)OCc1ccccc1 (stereo not drawn) [Cbz-Ala-Ala-AAsn-CH═CHCH═CHCH3, N^2—(N-Benzyloxycarbonylalanylalanyl)-N^1-carbamoylmethyl-N^1-trans-trans-hexa-2,4-dienoylhydrazine] |  |  |  |  |  |  | IC50 (S. mansoni legumain; [1]): > 2000 nM
CCOC(=O)/C=C/C(=O)N(CC(=O)O)NC(=O)[C@@H](NC(=O)[C@H](CCC(=O)O)NC(=O)OCc1ccccc1)C(C)C (relative stereo) [Cbz-Glu-Val-AAsp-CH═CH—COOEt, N^2—(N-Benzyloxycarbonylglutamylvalyl)-N^1-carboxymethyl-N^1-trans-(3-ethoxycarbonylpropenoyl)hydrazine] |  | 52,400 M^−1s^−1 | 90 M⁻¹ s⁻¹ | 3,540 M^−1s^−1 | 38,600 M^−1s^−1 | 8,940 M^−1s^−1 | 
